Source: patent publication US20250121025A1, “SCALP-DERIVED PEPTIDES ALLEVIATING HAIR LOSS SYMPTOMS” (NEWTREE CO., LTD, priority 2023, published 2025)

Key:
[1] = test system: androgen receptor (AR) and its target proteins (DKK-1 and TGF-β); experiment: Western blot of AR and its target proteins in DP cells; type: cell-based, human; details: 0.1, 1, 10 μM, 24 hours
Protocol: (§1) The expression and phosphorylation of protein markers involved in alopecia-related signal transduction pathways were evaluated after treatment with peptides (RKLW and RQLW).
(§2) DHT-AR and Wnt/beta-catenin pathway: An androgen receptor (AR) is a protein that binds to dihydrotestosterone (DHT), a representative inducer of androgenetic alopecia, and when the AR is activated by binding to DHT, Dickkopf-1 (DKK-1) and transforming growth factor beta (TGF-β) are expressed and promote alopecia. In addition, DKK-1, which is expressed by the activation of the AR, suppresses the Wnt signaling pathway involved in the development and growth of hair follicles, and TGF-β induces alopecia by suppressing the growth of hair follicle cells.
(§3) Specifically, the expressions of proteins involved in major signaling pathways related to hair growth were analyzed when HaCaT and DP cells were treated with RKLW and RQLW at 0.1, 1, and 10 μM and cultured for 24 hours.
(§4) The protein immunoblot (Western blot) results of the expression of the AR and its target proteins (DKK-1 and TGF-β) in HaCaT and DP cells are shown in FIG. 5. […] When DP cells were treated with RKLW or RQLW, the expression levels of both the AR and its target protein TGF-β was reduced.

[2] = test system: dermal papilla (DP) cells; experiment: Cell viability (CCK-8) in dermal papilla cells; type: cell-based, human
Protocol: (§5) In order to evaluate the efficacy of peptide treatment (RKLW and RQLW) to promote skin cell proliferation, human keratinocytes and dermal papilla (DP) cells were treated with RKLW and RQLW at 0.1, 1, and 10 μM. After being cultured for 24 and 48 hours, cells were treated with Cell Counting Kit-8 (CCK-8) to measure cell viability, and the results are shown in FIG. 3.

[3] = test system: cell cycle marker proteins (Cyclin D1, CDK4, Cyclin E1, and CDK2); experiment: Western blot of cell cycle marker proteins in DP cells; type: cell-based, human; details: 0.1, 1, 10 μM, 24 hours
Protocol: (§6) Cell cycle: maintaining the G1 phase of the cell cycle of scalp skin cells plays an important role in maintaining scalp health.
(§7) Specifically, the expressions of Cyclin D/CDK4 and Cyclin E/CDK2, which activate the G1 phase, were analyzed when HaCaT and DP cells were treated with RKLW and RQLW at 0.1, 1, and 10 µM and cultured for 24 hours, and the results are shown in FIG. 8.

[4] = test system: Wnt signaling pathway proteins (p-GSK-3β and β-catenin); experiment: Western blot of Wnt signaling pathway proteins in DP cells; type: cell-based, human; details: 0.1, 1, 10 μM, 24 hours
Protocol: as §3
(§8) Furthermore, the protein immunoblot (Western blot) results showing differential expressions and phosphorylation of proteins involved in Wnt signaling pathway in HaCaT and DP cells are shown in FIG. 6. […] When DP cells were treated with RKLW or RQLW, the expression of p-GSK-3β was not increased, but the expression of β-catenin was increased, meaning that in DP cells, RKLW or RQLW accumulates β-catenin through a pathway other than GSK-3β to activate Wnt signaling.

[5] = test system: mitochondrial apoptosis signaling pathway proteins (Bax, Bcl-2, Caspase-3, and PARP); experiment: Western blot of mitochondrial apoptosis signaling proteins in DP cells; type: cell-based, human; details: 0.1, 1, 10 μM, 24 hours
Protocol: (§9) Mitochondrial apoptosis: Bax is a pro-apoptotic protein that promotes apoptosis, and Bcl-2 is a pro-survival protein that suppresses apoptosis; the balance between these two proteins is important in regulating apoptosis.
(§10) Specifically, the expressions of proteins involved in mitochondrial apoptotic signaling pathways were analyzed when HaCaT and DP cells were treated with RKLW and RQLW at 0.1, 1, and 10 μM and cultured for 24 hours, and the results are shown in FIG. 7.

[6] = test system: HaCaT cells; experiment: Cell viability (CCK-8) in human keratinocytes; type: cell-based
Protocol: as §5

[7] = test system: androgen receptor (AR) and its target proteins (DKK-1 and TGF-β); experiment: Western blot of AR and its target proteins in HaCaT cells; type: cell-based, human; details: 0.1, 1, 10 μM, 24 hours
Protocol: as §1, §2, §3, §4

[8] = test system: Wnt signaling pathway proteins (p-GSK-3β and β-catenin); experiment: Western blot of Wnt signaling pathway proteins in HaCaT cells; type: cell-based, human; details: 0.1, 1, 10 μM, 24 hours
Protocol: as §3, §8

[9] = test system: cell cycle marker proteins (Cyclin D1, CDK4, Cyclin E1, and CDK2); experiment: Western blot of cell cycle marker proteins in HaCaT cells; type: cell-based, human; details: 0.1, 1, 10 μM, 24 hours
Protocol: as §6, §7

[10] = test system: mitochondrial apoptosis signaling pathway proteins (Bax, Bcl-2, Caspase-3, and PARP); experiment: Western blot of mitochondrial apoptosis signaling proteins in HaCaT cells; type: cell-based, human; details: 0.1, 1, 10 μM, 24 hours
Protocol: as §9, §10

Substance | expression level of AR [1] | expression level of TGF-β [1] | cell viability of dermal papilla cells ([2]; 1 and 10 μM, 24 hours) | expression level of Cyclin D/CDK4 [3] | expression level of Cyclin E/CDK2 [3] | expression of p-GSK-3β [4] | expression of β-catenin [4] | expression ratio of Bax/Bcl-2 [5] | AR expression [7] | expression level of DKK-1 [7] | expression level of TGF-β [7] | expression level of p-GSK-3β [8] | expression level of β-catenin [8] | expression level of Cyclin D/CDK4 [9] | expression level of Cyclin E/CDK2 [9] | effect of suppressing apoptosis [10] | further results
RKLW (listed as Homo sapiens) | reduced | reduced | significantly increased cell viability | increased | did not affect | not increased | increased | unable to regulate | no significant change | decreased | decreased | increased | increased | increased | increased | relatively insignificant effect | treatment concentration at which cell viability was significantly increased ([2]; 48 hours): ≤ 10 µM; cell viability of HaCaT cells ([6]; 24 and 48 hours, CCK-8): did not show statistical significance
RQLW (listed as Homo sapiens) | reduced | reduced | significantly increased cell viability | increased | did not affect | not increased | increased | unable to regulate | no significant change | decreased | decreased | increased | increased | increased | increased | showed an effect of suppressing apoptosis | cell viability of dermal papilla cells ([2]; 48 hours): no significant difference; concentration at which cell viability was significantly increased ([6]; after 24 hours): ≥ 100 µM; concentration at which cell viability was significantly increased ([6]; after 48 hours): ≥ 10 µM; expression ratio of Bax/Bcl-2 [10]: tended to decrease; protein level of PARP [10]: tended to decrease; protein level of cleaved caspase-3 [10]: tended to decrease
